Data: patent US8354422B2, “Pyrimidine inhibitors of kinase activity” (Abbott Laboratories Inc., priority 2009, dated 2013)

The molecules below were run against T1, C-terminal GST-tagged, recombinant, human IGF-1R, amino acids 954-1367 (Homo sapiens, UniProt P08069) (assay: IGF-1R kinase activity, homogenous time-resolved fluorescence (HTRF) in vitro kinase assay). Conditions: IGF-1R kinase HTRF assay, ATP 50 μM, biotinylated peptide substrate 0.5 μM, 60 minutes at room temperature.
T1 construct: human IGF-1R, amino acids 954-1367 expressed by baculovirus in Sf21 cells; GST (C); purchased Cell Signaling Technology; host or cells: baculovirus in Sf21 cells
Format: biochemical
Description: IGF-1R kinase activity was assayed by a homogenous time-resolved fluorescence (HTRF) in vitro kinase assay (Mathis, G., HTRF(R) Technology. J Biomol Screen, 1999. 4(6): p. 309-314). Specifically, 10 μL C-terminal GST-tagged, recombinant, human IGF-1R, amino acids 954-1367 expressed by baculovirus in Sf21 cells (Cell Singaling Technology) was mixed with 10 μL inhibitor (various concentrations, 2% final DMSO) and 10 μL of ATP (50 μM final concentration) in reaction buffer (50 mM HEPES, pH […], 2 mM MnCl2, 0.1% BSA and 1 mM DTT, 40 μL final volume). The reaction was initiated by addition of 10 μL of biotinylated peptide substrate (Biotin-Ahx-[…], 0.5 μM final concentration) in a black 384-well plate (Packard). After 60 minutes incubation at room temperature, the reaction was quenched by addition of 60 μL stop/revelation buffer to give 30 mM EDTA, 1 μg/mL streptavidin-APC (Prozyme), 50 ng/mL anti-phosphotyrosine mAb PT66-K Europium Cryptate, 30 mM HEPES, pH 7.5, 120 mM KF, 0.005% Tween-20, 0.05% BSA). The quenched reaction was allowed to stand at room temperature for 1 hour and then read in a time-resolved fluorescence detector (Envision, Perkin Elmer) at 615 nm and 665 nm simultaneously. The ratio between the signal of 615 nm and 665 nm was used in the calculation of the IC50.

T1 sequence (P08069 954-1367): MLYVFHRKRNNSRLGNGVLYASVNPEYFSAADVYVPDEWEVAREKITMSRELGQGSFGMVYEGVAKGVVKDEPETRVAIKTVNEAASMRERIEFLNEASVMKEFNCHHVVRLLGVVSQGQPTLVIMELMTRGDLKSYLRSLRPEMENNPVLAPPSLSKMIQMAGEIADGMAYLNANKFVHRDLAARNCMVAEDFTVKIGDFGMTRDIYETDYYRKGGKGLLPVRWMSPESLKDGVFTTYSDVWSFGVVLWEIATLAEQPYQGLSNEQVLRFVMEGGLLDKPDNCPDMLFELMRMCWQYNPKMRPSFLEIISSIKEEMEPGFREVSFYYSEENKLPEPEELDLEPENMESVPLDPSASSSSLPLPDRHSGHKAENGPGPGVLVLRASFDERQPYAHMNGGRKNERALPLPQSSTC

| Structure (SMILES) | IC50 |
| --- | --- |
| c1ccc(COc2ccc(-c3nc4ccccn4c3-c3ccnc(Nc4cc(C5CC5)n[nH]4)n3)cc2)cc1 [Example 15, 4-{2-[4-(benzyloxy)phenyl]imidazo[1,2-a]pyridin-3-yl}-N-(3-cyclopropyl-1H-pyrazol-5-yl)pyrimidin-2-amine] | > 1000 nM |
| Cc1cc(-c2nc3ccccn3c2-c2ccnc(Nc3cccc(CCN(C)C)c3)n2)ccc1OCc1ccccc1 [Example 68, 4-{2-[4-(benzyloxy)-3-methylphenyl]imidazo[1,2-a]pyridin-3-yl}-N-{3-[2-(dimethylamino)ethyl]phenyl}pyrimidin-2-amine] | 501 to 1000 nM |
| COc1ccc(CCN(C)C)cc1Nc1nccc(-c2c(-c3ccc(OCc4ccccc4)c(OC)c3)nc3ccccn23)n1 [Example 59, 4-{2-[4-(benzyloxy)-3-methoxyphenyl]imidazo[1,2-a]pyridin-3-yl}-N-{5-[2-(dimethylamino)ethyl]-2-methoxyphenyl}pyrimidin-2-amine] | 25 to 100 nM |
| Fc1ccc(Nc2nccc(-c3c(-c4ccc(OCc5ccccc5)cc4)nc4ccccn34)n2)cc1 [Example 28, 4-{2-[4-(benzyloxy)phenyl]imidazo[1,2-a]pyridin-3-yl}-N-(4-fluorophenyl)pyrimidin-2-amine] | > 1000 nM |
| COc1cc(-c2nc3ccccn3c2-c2ccnc(Nc3cccc(CN4CCC(O)C4)c3)n2)ccc1OCc1ccccc1 (stereo not shown) [Example 70, 1-{3-[(4-{2-[4-(benzyloxy)-3-methoxyphenyl]imidazo[1,2-a]pyridin-3-yl}pyrimidin-2-yl)amino]benzyl}pyrrolidin-3-ol] | 25 to 100 nM |
| COc1cc(-c2nc3ccccn3c2-c2ccnc(Nc3cnn(CCO)c3)n2)ccc1OCc1ccccc1 [Example 47, 2-{4-[(4-{2-[4-(benzyloxy)-3-methoxyphenyl]imidazo[1,2-a]pyridin-3-yl}pyrimidin-2-yl)amino]-1H-pyrazol-1-yl}ethanol] | 25 to 100 nM |
| c1ccc(COc2ccc(-c3nc4ccccn4c3-c3ccnc(Nc4ccccc4)n3)cc2)cc1 [Example 7, 4-{2-[4-(benzyloxy)phenyl]imidazo[1,2-a]pyridin-3-yl}-N-phenylpyrimidin-2-amine] | > 1000 nM |
| COc1ccc(COc2ccc(-c3nc4ccccn4c3-c3ccnc(Nc4cccc(CCN(C)C)c4)n3)cc2)cc1 [Example 17, N-{3-[2-(dimethylamino)ethyl]phenyl}-4-(2-{4-[(4-methoxybenzyl)oxy]phenyl}imidazo[1,2-a]pyridin-3-yl)pyrimidin-2-amine] | 101 to 500 nM |
| COc1cc(-c2nc3ccccn3c2-c2ccnc(Nc3ccc4c(c3)CCNC4)n2)ccc1OCc1ccccc1 [Example 61, N-(4-{2-[4-(benzyloxy)-3-methoxyphenyl]imidazo[1,2-a]pyridin-3-yl}pyrimidin-2-yl)-1,2,3,4-tetrahydroisoquinolin-6-amine] | < 25 nM |
| Fc1ccc(Nc2nccc(-c3c(-c4ccc(OCc5ccccc5)cc4)nc4ccccn34)n2)c(F)c1 [Example 29, 4-{2-[4-(benzyloxy)phenyl]imidazo[1,2-a]pyridin-3-yl}-N-(2,4-difluorophenyl)pyrimidin-2-amine] | > 1000 nM |
| c1ccc(COc2ccc(-c3nc4sccn4c3-c3ccnc(Nc4ccccc4)n3)cc2)cc1 [Example 78, 4-{6-[4-(benzyloxy)phenyl]imidazo[2,1-b][1,3]thiazol-5-yl}-N-phenylpyrimidin-2-amine] | > 1000 nM |
| COc1ccccc1COc1ccc(-c2nc3ccccn3c2-c2ccnc(Nc3cccc(CCN(C)C)c3)n2)cc1 [Example 16, N-{3-[2-(dimethylamino)ethyl]phenyl}-4-(2-{4-[(2-methoxybenzyl)oxy]phenyl}imidazo[1,2-a]pyridin-3-yl)pyrimidin-2-amine] | 101 to 500 nM |
| CN(C)CCc1cccc(Nc2nccc(-c3c(-c4ccc(OCc5ccccc5)cc4)nn4cc(F)ccc34)n2)c1 [Example 77, 4-{2-[4-(benzyloxy)phenyl]-6-fluoropyrazolo[1,5-a]pyridin-3-yl}-N-{3-[2-(dimethylamino)ethyl]phenyl}pyrimidin-2-amine] | > 1000 nM |
